Starred links: 1 amine or outer side, 2 acyl side, 3 side chain; linkers in the order of their positions; H or OH if unused. Positions of bridges follow the written chain, without caps; N, C: chain ends. Non-standard residues stand in square brackets, D forms with d. Residues, ends and D or L forms follow the SMILES beside them. *: point of attachment. X1 = CC[C@H](C)[C@@H](N[*:1])[C@@H](O)CC(=O)O[C@H](C(=O)[C@H](C)C(=O)[*:2])C(C)C; NMeY = CN[C@@H](Cc1ccc(O)cc1)C(=O)O; dNMeL = CN[C@H](CC(C)C)C(=O)O; Pyruvoyl = CC(=O)C(=O)*
How the values were obtained:
[1] = test system: LOX-IMVI human melanoma xenograft; assay: Aplidine with sorafenib, LOX-IMVI xenograft in athymic nude mice (Example 7); type: in vivo; conditions: for antitumor activity as single agent (monotherapy): doses tested; for % Inhibition G4: sorafenib 30 mg/kg/day; for % Inhibition G3: sorafenib 60 mg/kg/day; for % Inhibition G2: aplidine 0.06 mg/kg/day
Text: Female athymic nude mice (Harlan Sprague Dawley, Madison, Wis.) were utilized for all experiments. Mice were implanted with a tumor fragment when mice were 6-8 weeks of age. Animals were housed in ventilated rack caging with food and water ad libitum. The mice were acclimated for at least 5 days prior to tumor implantation.
The tumor model used in this study was LOX-IMVI, which is a human melanoma cell line obtained from the Department of Developmental Therapeutics, National Cancer Institute (NCI). Animals were implanted subcutaneously (SC) on the right flank, using a 13 gauge trocar, with 2 mm^3 of tissue tumor fragments of LOX-IMVI, from an in vivo transplantable line passage 1, using sterile Earle's Balanced Salt solution as a wetting agent.
Tumor measurements were determined as disclosed in Example 1. When tumor growth was within an average size range of 130±44 mg (mean±SD), mice were randomized into the treatment and control groups based on tumor weight by using LabCat® In Life module V 8.0 SP1 tumor tracking and measurement software.
The treatment of LOX-IMVI-tumor-bearing mice was initiated on DPI (Day Post Implantation) 11. Body weights were recorded on treatment days and when tumor sizes were measured. In those days wherein the two drugs were administered the same day, the combination therapy groups were treated by co-administering the two drugs at the same time, with no attempt to sequence the treatments.
(§1) Aplidine was provided in the form of vials of lyophilized aplidine powder which was reconstituted in Cremophor EL/ethanol/water (CEW) 15/15/70 to a concentration of 0.5 mg/ml. The aplidine solution in CEW was diluted in 0.9% Saline to the dosing formulation concentrations, being the final proportion of CEW of 0.18/0.18/0.84.
(§2) Tumor size measurements were recorded twice weekly from the treatment initiation until the termination of the study.
(§3) Mean, standard deviation and standard error of the mean were determined for tumor volume for all animal groups at all assessments. Student's t test was performed on tumor volumes at each measurement day, including at the end of the study, to determine whether there were any statistically significant differences between combination treatment groups and single monotherapy treatment groups.
The definition and criteria for the evaluation of potentiation and the degree of additivity for the combination therapy were the same as those disclose in Example 1.

[2] = test system: A498 human renal tumor xenograft; assay: Aplidine with sorafenib, A498 xenograft in athymic nude mice (Example 1); type: in vivo
Experimental: Female athymic nude mice (Harlan Sprague Dawley, Madison, Wis.) were utilized for all experiments. Mice were implanted with tumor fragments or a cell suspension when mice were 5 weeks of age. Animals were housed in ventilated rack caging, 5 mice per cage, with food and water ad libitum. The mice were acclimated for 1 week prior to being implanted with tumor fragments or cell suspensions.
A498 cells were grown in MEM, 2 mM L-glutamine and 10% FBS. Cells from in vitro passage 4-20 were implanted SC into study mice: 5×10^6 cells/mouse in 0.2 ml 50% Matrigel/50% medium without antibiotics or serum, using a 23 G needle and 1 cc syringe. Matrigel is a biological extracellular matrix that is liquid at 4° C. and solid at 37° C., and it promotes tumor growth by maintaining the cells in close association in a localized area. Bacterial cultures were performed on aliquots of the cells prepared for implantation.
Tumor measurements were determined by using Vernier calipers. The formula to calculate volume for a prolate ellipsoid was used to estimate tumor volume (mm^3) from 2-dimensional tumor measurements: Tumor volume (mm^3)=[L×W^2]÷2, where L is the length and it is the longest diameter in mm, and W is the width and it is the shortest diameter in mm of a tumor. Assuming unit density, volume was converted to weight (i.e., 1 mm^3=1 mg).
Body weights were recorded on treatment days and when tumor sizes were measured. In those days wherein the two drugs were administered the same day, the combination therapy groups were treated by co-administering the two drugs at the same time, with no attempt to sequence the treatments.
as §1, with “Then the” for “The”
as §2, §3
Determine the % of tumor growth inhibition, as 100−% T/C, for each of the drugs administered as monotherapy at the doses used in the combinations. % T/C was obtained by comparing the mean tumor weight in the treatment groups (T) to the mean tumor weight in the control group (C) (T/C×100%). • 2. The two scores were added together to determine the “expected response” if each agent produced the same response as it did when administered as monotherapy. • 3. This “expected response” was subtracted from the % of tumor growth inhibition determined for the combination therapy group: • a. A negative number meant that the effect of combining the two drugs was less than additive. • b. If the resulting number was close to zero, the effect of combining the two drugs was determined as additive. • c.

[3] = aplidine 0.040 and/or sorafenib 30 mg/kg/day
[4] = aplidine 0.060 and/or sorafenib 60 mg/kg/day
[5] = G2: aplidine 0.060 mg/kg/day IP

## CNC(=O)c1cc(Oc2ccc(NC(=O)Nc3ccc(Cl)c(C(F)(F)F)c3)cc2)ccn1 [sorafenib]
[1]; G3: sorafenib 60 mg/kg/day PO
  % T/C on day 11: 98.6%
  % T/C on day 14: 101.2%
  % T/C on day 18: 77.7%
  % T/C on day 20: 71.7%
  % T/C on day 22: 64.8%
  % T/C on day 25: 73.3%
[1]; G4: sorafenib 30 mg/kg/day PO
  % T/C on day 14: 96.9%
  % T/C on day 18: 77.4%
  % T/C on day 20: 75.9%
  % T/C on day 22: 77.3%
  % T/C on day 25: 93.4%
[1]
  antitumor activity as single agent (monotherapy): inactive
[1]; day 11
  % Inhibition G4: −2.1%
  % Inhibition G3: 1.4%
[1]; day 14
  % Inhibition G4: 3.1%
  % Inhibition G3: −1.2%
[1]; day 18
  % Inhibition G4: 22.6%
  % Inhibition G3: 22.3%
[1]; day 20
  % Inhibition G4: 24.1%
  % Inhibition G3: 28.3%
[1]; day 22
  % Inhibition G4: 22.7%
  % Inhibition G3: 35.2%
[1]; day 25
  % Inhibition G4: 6.6%
  % Inhibition G3: 26.7%
[2]; [3]
  % T/C on day 26: 97.0%
  % T/C on day 29: 97.4%
  % T/C on day 33: 76.6%
  % T/C on day 36: 84.2%
  % T/C on day 40: 98.7%
  % T/C on day 43: 70.1%
  % T/C on day 47: 91.2%
  % T/C on day 50: 85.9%
  % T/C on day 54: 105.9%
  % T/C on day 61: 89.6%
[2]; [4]
  % T/C on day 26: 97.4%
  % T/C on day 29: 87.8%
  % T/C on day 33: 80.2%
  % T/C on day 36: 68.6%
  % T/C on day 40: 82.9%
  % T/C on day 43: 51.4%
  % T/C on day 47: 74.9%
  % T/C on day 50: 71.1%
  % T/C on day 54: 78.7%
  % T/C on day 61: 81.3%

## CC[C@H](C)[C@H]1NC(=O)[C@@H](NC(=O)[C@@H](CC(C)C)N(C)C(=O)[C@@H]2CCCN2C(=O)C(C)=O)[C@@H](C)OC(=O)[C@H](Cc2ccc(OC)cc2)N(C)C(=O)[C@@H]2CCCN2C(=O)[C@H](CC(C)C)NC(=O)[C@@H](C)C(=O)[C@H](C(C)C)OC(=O)C[C@@H]1O [aplidine, dehydrodidemnin B] (Pyruvoyl-P[dNMeL]T[X1]LP[NMeY](Me); ester 3-C)
[1]; [5]
  % T/C on day 11: 102.9%
  % T/C on day 14: 82.9%
  % T/C on day 18: 79.3%
  % T/C on day 20: 98.5%
  % T/C on day 22: 102.0%
  % T/C on day 25: 105.4%
[1]; day 11
  % Inhibition G2: −2.9%
[1]; day 14
  % Inhibition G2: 17.1%
[1]; day 18
  % Inhibition G2: 20.7%
[1]; day 20
  % Inhibition G2: 1.5%
[1]; day 22
  % Inhibition G2: −2.0%
[1]; day 25
  % Inhibition G2: −5.4%
[1]
  antitumor activity as single agent (monotherapy): inactive
[2]; [3]
  % T/C on day 26: 100.8%
  % T/C on day 29: 84.6%
  % T/C on day 33: 78.7%
  % T/C on day 36: 74.8%
  % T/C on day 40: 90.2%
  % T/C on day 43: 65.1%
  % T/C on day 47: 89.8%
  % T/C on day 50: 71.5%
  % T/C on day 54: 86.7%
  % T/C on day 61: 89.5%
[2]; [4]
  % T/C on day 26: 96.8%
  % T/C on day 29: 72.3%
  % T/C on day 33: 71.0%
  % T/C on day 36: 77.0%
  % T/C on day 40: 85.3%
  % T/C on day 43: 78.6%
  % T/C on day 47: 86.5%
  % T/C on day 50: 82.6%
  % T/C on day 54: 90.9%
  % T/C on day 61: 87.8%
[2]; doses and schedules tested
  antitumor activity as single agent (monotherapy): did not reach the NCI criteria for activity

— patent publication US20110009335A1, “Anticancer Treatments” (priority 2008, published 2011)
